The supplement of paper PMC10307832

Experiments:
Assay in all cases: relative viability (nuclei count vs DMSO), 5 days (fraction); higher = more cells survive
[1] = compound: COc1cc2c(Oc3ccc4[nH]c(C)cc4c3F)ncnc2cc1OCCCN1CCCC1 [Cediranib] + COc1cccc2cc(-c3nc([C@H]4CC[C@H](C(=O)O)CC4)n4ncnc(N)c34)[nH]c12 [OSI-027] (partner 0.5 µM)
Summary of the method: (§1)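 Nuclei were stained with Hoechst during a one-step fixation (final 0.05% Triton X-100, 1% formaldehyde, 1 ug/ml Hoechst) carried out 5 days after dosing, then counted on 4× images. The cells, lung cancer lines in 1536-well plates, had been dosed by pin tool the day after seeding with one drug alone or a fixed anchor-drug dose plus five library-drug doses (not always all listed) in √10 steps. Relative viability is the nuclei count in treated wells divided by that in vehicle wells, and each value is the median of duplicate plates.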

[2] = compound: O=C(C[C@H]1NCCC[C@@H]1O)Cn1cnc2cc(Br)c(Cl)cc2c1=O (racemic) [Halofuginone] + Nc1ncn([C@H]2C[C@H](O)[C@@H](CO)O2)c(=O)n1 [Decitabine] (partner 2 µM)
Summary of the method: as §1

[3] = compound: Nc1ncn([C@H]2C[C@H](O)[C@@H](CO)O2)c(=O)n1 [Decitabine] + COc1cc2c(Oc3ccc(NC(=O)C4(C(=O)Nc5ccc(F)cc5)CC4)cc3F)ccnc2cc1OCCCN1CCOCC1 [Foretinib] (partner 0.25 µM)
Summary of the method: as §1

[4] = compound: Nc1ncn([C@H]2C[C@H](O)[C@@H](CO)O2)c(=O)n1 [Decitabine] + O=C(CCCCCCC(=O)Nc1ccccc1)NO [Vorinostat] (partner 1 µM)
Summary of the method: as §1

Cell Line	relative viability ([1]; first compound 0.04 µM)	relative viability ([1]; first compound 0.1265 µM)	relative viability ([1]; first compound 0.4 µM)	relative viability ([1]; first compound 1.265 µM)	relative viability ([1]; first compound 4 µM)	relative viability ([2]; first compound 0.001 µM)	relative viability ([2]; first compound 0.003162 µM)	relative viability ([2]; first compound 0.01 µM)	relative viability ([2]; first compound 0.03162 µM)	relative viability ([2]; first compound 0.1 µM)	relative viability ([3]; first compound 0.04 µM)	relative viability ([3]; first compound 0.1265 µM)	relative viability ([3]; first compound 0.4 µM)	relative viability ([3]; first compound 1.265 µM)	relative viability ([3]; first compound 4 µM)	relative viability ([4]; first compound 0.04 µM)	relative viability ([4]; first compound 0.1265 µM)	relative viability ([4]; first compound 0.4 µM)	relative viability ([4]; first compound 4 µM)	relative viability ([4]; first compound 1.265 µM)
201T	0.945	0.841	0.671	0.717	0.692	0.844	0.896	0.857	0.792	0.845	1.18	1.35	1.02	0.744	0.727	0.939	1.01	0.952	0.884	–
A549	–	–	–	–	–	0.338	0.278	0.293	0.257	0.258	0.719	0.634	0.448	0.143	0.0978	–	–	–	–	–
A-427	0.515	–	0.339	0.361	0.405	0.626	0.596	0.541	0.564	0.52	0.653	0.635	0.354	0.264	0.242	0.789	0.732	0.526	0.396	0.411
ABC-1	0.447	0.651	0.532	–	0.437	1.11	1.39	0.926	1.26	1.04	0.979	0.912	0.763	0.839	0.67	–	0.842	0.964	0.795	0.888
BEN	0.308	–	0.28	0.311	0.286	0.719	0.743	0.754	0.778	0.561	0.596	0.566	0.35	0.437	0.38	0.664	0.623	0.451	0.435	0.488
CAL-12T	0.814	0.568	0.624	0.416	0.992	–	–	–	–	–	1.08	0.883	–	0.618	0.419	0.615	0.432	0.486	0.238	0.318
COR-L23	0.913	0.767	0.738	0.675	0.872	0.518	0.511	0.421	0.465	0.217	0.597	0.605	0.473	0.353	0.246	0.258	0.259	0.184	0.126	0.132
COR-L 105	0.6	0.904	0.553	0.552	0.601	0.673	0.791	0.63	0.598	0.568	1.2	0.98	0.881	0.633	0.554	0.768	0.721	0.61	0.439	0.585
Calu-6	–	–	–	–	–	–	–	–	–	–	0.698	0.525	0.275	0.243	0.217	–	–	–	–	–
ChaGo-K-1	0.441	0.363	0.535	0.572	0.615	0.548	0.531	0.474	0.532	0.532	0.819	0.683	0.507	0.376	0.421	0.771	0.684	0.402	0.374	0.39
EBC-1	–	–	–	–	–	–	–	–	–	–	0.0865	0.0957	0.106	0.0836	0.0866	–	–	–	–	–
EKVX	0.759	0.809	0.681	0.684	0.723	0.317	0.313	0.281	0.354	0.276	0.65	0.995	0.605	0.353	0.365	0.455	0.506	0.507	0.335	0.432
EMC-BAC-2	0.377	0.503	0.38	0.319	0.367	0.989	1	0.917	0.874	0.409	0.936	0.861	0.762	0.66	0.588	–	0.456	0.538	0.43	0.414
EPLC-272H	0.288	–	0.287	–	0.232	0.421	0.4	0.39	0.436	0.351	–	0.611	0.0722	0.304	0.35	0.369	0.281	–	0.215	0.221
H3255	0.658	–	0.638	0.58	0.533	0.593	0.682	0.567	0.628	0.517	–	0.652	0.484	0.587	0.513	–	0.846	0.638	0.76	0.487
HARA	0.367	–	0.446	0.353	0.657	0.664	0.648	0.611	0.591	0.434	0.641	0.558	0.387	0.215	0.165	0.507	0.377	0.345	0.214	0.213
HCC-15	0.625	–	0.674	0.692	0.717	0.647	0.71	0.747	0.676	0.482	0.939	0.957	0.542	0.56	0.434	0.776	0.678	0.543	0.35	0.418
HCC-44	–	–	0.447	0.473	0.619	0.967	0.992	0.953	0.973	0.902	–	–	–	–	–	1.06	0.982	0.839	0.785	0.904
HCC-78	0.356	0.448	0.376	0.311	0.356	0.688	0.678	0.667	0.69	0.714	0.648	0.58	0.588	0.455	0.433	0.54	0.476	0.477	0.346	0.448
HCC-366	0.933	0.877	0.841	0.84	1.07	0.385	0.418	0.339	0.373	0.336	0.825	0.743	0.448	0.211	0.128	0.235	0.313	0.138	0.0657	0.0554

Cell Line	relative viability ([1]; first compound 0.04 µM)	relative viability ([1]; first compound 0.1265 µM)	relative viability ([1]; first compound 0.4 µM)	relative viability ([1]; first compound 1.265 µM)	relative viability ([1]; first compound 4 µM)	relative viability ([2]; first compound 0.001 µM)	relative viability ([2]; first compound 0.003162 µM)	relative viability ([2]; first compound 0.01 µM)	relative viability ([2]; first compound 0.03162 µM)	relative viability ([2]; first compound 0.1 µM)	relative viability ([3]; first compound 0.04 µM)	relative viability ([3]; first compound 0.1265 µM)	relative viability ([3]; first compound 0.4 µM)	relative viability ([3]; first compound 1.265 µM)	relative viability ([3]; first compound 4 µM)	relative viability ([4]; first compound 0.04 µM)	relative viability ([4]; first compound 0.1265 µM)	relative viability ([4]; first compound 0.4 µM)	relative viability ([4]; first compound 4 µM)	relative viability ([4]; first compound 1.265 µM)
HCC-827	0.751	–	0.737	0.74	0.671	0.332	0.282	0.207	0.295	0.308	0.351	0.383	0.333	0.3	0.279	0.143	0.32	0.303	0.287	0.243
HOP-62	0.78	0.813	0.771	0.677	0.791	0.233	0.224	0.194	0.206	0.199	0.773	0.53	0.315	0.197	0.218	0.348	0.316	0.161	0.11	0.123
IA-LM	–	–	–	–	–	–	–	–	–	–	0.543	0.502	0.282	0.204	0.108	0.853	0.403	0.393	0.164	0.236
LC-2-ad	0.874	0.731	0.821	0.762	0.835	0.7	0.857	0.806	0.892	0.687	0.68	0.889	0.794	0.557	0.516	0.642	0.635	0.608	0.406	0.365
LCLC-97TM1	0.605	0.332	0.518	0.508	0.566	0.263	0.222	0.203	0.19	0.227	0.583	0.728	0.418	0.256	0.177	0.273	0.159	0.107	0.0784	0.0989
LCLC-103H	0.469	0.501	0.474	0.467	0.504	0.773	0.78	0.735	0.711	0.728	0.945	0.807	0.717	0.636	0.519	0.653	0.81	0.628	0.561	0.511
LK-2	0.181	0.192	0.22	0.175	0.201	0.309	0.261	0.337	0.328	0.286	1.45	1.38	0.849	0.39	0.381	0.229	0.268	0.285	0.208	0.204
LOU-NH91	0.769	0.862	0.707	0.582	0.701	0.809	0.818	0.787	0.802	0.817	0.56	0.913	0.726	0.739	0.756	0.768	0.958	0.848	0.849	0.805
LU99A	0.281	0.314	0.305	0.286	0.288	0.783	1.01	0.846	0.769	0.879	0.766	0.814	0.874	0.625	0.486	0.469	0.513	0.523	0.397	0.453
LXF-289	0.667	0.641	0.689	0.77	0.79	0.395	0.393	0.383	0.418	0.381	0.713	0.541	0.399	0.289	0.269	0.462	0.354	0.293	0.266	0.243
NCI-H23	0.511	–	0.557	0.511	0.582	0.333	0.314	0.313	0.346	0.273	0.692	0.533	0.393	0.39	0.359	0.281	0.301	0.256	0.179	0.176
NCI-H322M	0.541	0.567	0.535	0.52	0.538	0.71	0.657	0.681	0.657	0.53	0.818	0.872	0.669	0.485	0.473	0.715	0.792	0.816	0.664	0.61
NCI-H522	0.719	0.77	0.686	0.707	0.694	0.735	0.673	0.871	0.753	0.717	–	–	–	–	–	0.898	0.684	0.562	0.54	0.505
NCI-H1299	–	–	–	–	–	–	–	–	–	–	1.09	1.13	1.03	1.03	1.01	–	–	–	–	–
NCI-H1563	0.799	1.03	0.767	0.744	0.796	–	–	–	–	–	0.984	0.886	1.14	0.949	0.917	–	–	–	–	–
NCI-H1623	0.426	0.442	0.477	0.423	0.392	–	–	–	–	–	0.706	0.822	0.657	0.53	0.549	–	–	–	–	–
NCI-H1648	0.284	–	0.259	0.272	0.246	0.518	0.525	0.512	0.559	0.506	–	–	–	–	–	0.384	0.386	0.305	0.315	0.249
NCI-H1703	–	–	–	–	–	–	–	–	–	–	0.371	0.341	0.455	0.377	0.271	–	–	–	–	–
NCI-H1792	0.731	0.732	0.661	0.76	0.757	0.652	0.609	0.529	0.541	0.186	–	–	–	–	–	–	–	–	–	–
NCI-H2228	0.552	0.767	0.496	0.335	0.68	–	–	–	–	–	0.593	0.532	0.352	0.273	0.207	0.221	0.304	0.16	0.179	0.169
